Calls of active or inactive are those of the source. The rule behind the calls is not given here.
Experiments:
[1] = Cytotoxicity against BALB/c mouse primary bone marrow derived monocytes after 7 days by osteoclast differentiation/AlamarBlue assay; type: cell-based; details: monocyte, 168 h
[2] = target: T1, TNF receptor-associated factor 6 (Homo sapiens) (UniProt Q9Y4K3); test: Induction of human TRAF6 aggregation by NMR titration
T1 sequence (whole entry): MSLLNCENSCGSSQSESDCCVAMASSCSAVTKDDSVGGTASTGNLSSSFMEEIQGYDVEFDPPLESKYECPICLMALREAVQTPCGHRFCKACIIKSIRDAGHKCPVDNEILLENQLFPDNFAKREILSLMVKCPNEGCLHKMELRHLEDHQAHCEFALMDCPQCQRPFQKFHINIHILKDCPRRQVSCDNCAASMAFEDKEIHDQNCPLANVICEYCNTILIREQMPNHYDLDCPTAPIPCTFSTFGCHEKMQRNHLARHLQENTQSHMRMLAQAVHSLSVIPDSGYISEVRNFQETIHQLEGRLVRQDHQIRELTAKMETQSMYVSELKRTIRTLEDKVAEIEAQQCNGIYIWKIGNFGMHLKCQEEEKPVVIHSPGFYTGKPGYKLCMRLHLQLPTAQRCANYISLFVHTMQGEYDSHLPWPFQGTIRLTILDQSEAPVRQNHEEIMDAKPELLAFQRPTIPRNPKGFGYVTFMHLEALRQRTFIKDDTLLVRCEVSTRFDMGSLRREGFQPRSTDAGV

[3] = target: T2, TNF receptor-associated factor 6 (Homo sapiens, UniProt Q9Y4K3); test: Inhibition of human TRAF6 interaction with biotinylated RANK peptide by NMR interaction analysis
T2 sequence (Q9Y4K3 whole entry): T1 sequence (whole entry)

[4] = target: T1, TNF receptor-associated factor 6 (Homo sapiens); test: Binding affinity to human TRAF6 using immobilized biotinylated RANK peptide from by SPR analysis
Monocyte [5] = test: Inhibition of BALB/c mouse primary bone marrow derived monocytes differentiation after 7 days by osteoclast differentiation assay; type: functional, cell-based
Monocyte [6] = test: Inhibition of BALB/c mouse primary bone marrow derived monocytes differentiation after 7 days at 150 uM by osteoclast differentiation assay; type: functional; details: 168 h
[7] = target: T1, TNF receptor-associated factor 6 (Homo sapiens); details: 200 uM
Description: Competitive inhibition of human TRAF6 interaction with biotinylated RANK peptide at 200 uM by NMR interaction analysis

SMILES: O=C(Cn1c(=O)sc2ccccc21)Nc1ccc(C(=O)O)cc1
- Activity [1]: Non-toxic
- Activity [2]: inactive
- Kd [3]: 1900 µM
- inhibition [4]: Active
- inhibition (Monocyte [5]): Active

SMILES: CS(=O)(=O)NC(=O)c1ccc(NC(=O)Cn2c(=O)sc3ccc(Cl)cc32)cc1
- Kd [3]: 990 µM

SMILES: O=C(Cn1c(=O)sc2ccc(Cl)cc21)Nc1ccc(C(=O)O)cc1
- Kd [3]: 1700 µM

SMILES: COc1ccc(S(=O)(=O)NC(=O)c2ccc(NC(=O)Cn3c(=O)sc4ccc(Cl)cc43)cc2)cc1Cl
- inhibition at 150 µM (Monocyte [6]): 40%
- Activity [2]: inactive
- Kd [3]: 35 µM
- inhibition [7]: Active
